Measured values from US20180016616A1, “METHODS AND COMPOSITIONS FOR THE DETECTION OF FUNCTIONAL CLOSTRIDIUM DIFFICILE TOXINS” (BOARD OF REGENTS OF THE UNIVERSITY OF TEXAS SYSTEM, priority 2011, published 2018).
Read-outs that look alike come from different tables or passages of the source.

Columns and labels:
[1] = test system: C. difficile toxins A and B; test: Evaluation of chromogenic substrates for the Cdifftox Activity assay; format: biochemical, Clostridium difficile
Procedure: A Cdifftox Activity assay was used to identify fractions that contained PNPG cleavage activity. The assay consists of the Cdifftox substrate reagent composed of 10 mM PNPG, 50 mM Tris-HCl (pH 7.4), 50 mM NaCl, and 100 μM MnCl2. The assay was performed in Costar sterile polystyrene 96-well plates (Corning Inc., NY) by adding to each well 200 μl of sample or culture supernatant fluid containing the toxins and 100 μl of the reagent. The plate was incubated at 37° C. for 1-4 hrs and each reaction was stopped by the addition to the well of 40 μl of 3 M Na2CO3. Cleavage of the substrate was monitored by measuring the absorbance between 400-500 nm, with a SPECTRA max at 410 nm.
Plus 384 spectrophotometer (Molecular Devices, Sunnyvale, Calif.). To identify the best substrate for the assay, a number of substrates were evaluated including: p-nitrophenyl-α-D-glucopyranoside, 4-aminophenyl-α-D-glucopyranoside, 4-amino-phenyl-β-D-glucopyranoside, 5-benzyloxy-3-indoxyl-β-D-glucopyranoside, 5-bromo-6-chloro-3-indoxyl-β-D-glucopyranoside, 6-bromo-2-naphthyl-α-D-glucopyranoside, 6-chloro-3-indoxyl-α-D-glucopyranoside, 6-chloro-3-indoxyl-N-acetyl-beta-D-glucos-aminide, 5-bromo-3-indoxyl-β-D-galactopyranoside, and 5-bromo-4-chloro-3-indoxyl-β-D-galactopyranoside. […]

[2] = target: T1, C. difficile toxin A (Clostridioides difficile, UniProt P16154); test: biochemical; settings: read-out: reduction of toxin A activity (percent inhibition)
T1 sequence (P16154 whole entry, looked up): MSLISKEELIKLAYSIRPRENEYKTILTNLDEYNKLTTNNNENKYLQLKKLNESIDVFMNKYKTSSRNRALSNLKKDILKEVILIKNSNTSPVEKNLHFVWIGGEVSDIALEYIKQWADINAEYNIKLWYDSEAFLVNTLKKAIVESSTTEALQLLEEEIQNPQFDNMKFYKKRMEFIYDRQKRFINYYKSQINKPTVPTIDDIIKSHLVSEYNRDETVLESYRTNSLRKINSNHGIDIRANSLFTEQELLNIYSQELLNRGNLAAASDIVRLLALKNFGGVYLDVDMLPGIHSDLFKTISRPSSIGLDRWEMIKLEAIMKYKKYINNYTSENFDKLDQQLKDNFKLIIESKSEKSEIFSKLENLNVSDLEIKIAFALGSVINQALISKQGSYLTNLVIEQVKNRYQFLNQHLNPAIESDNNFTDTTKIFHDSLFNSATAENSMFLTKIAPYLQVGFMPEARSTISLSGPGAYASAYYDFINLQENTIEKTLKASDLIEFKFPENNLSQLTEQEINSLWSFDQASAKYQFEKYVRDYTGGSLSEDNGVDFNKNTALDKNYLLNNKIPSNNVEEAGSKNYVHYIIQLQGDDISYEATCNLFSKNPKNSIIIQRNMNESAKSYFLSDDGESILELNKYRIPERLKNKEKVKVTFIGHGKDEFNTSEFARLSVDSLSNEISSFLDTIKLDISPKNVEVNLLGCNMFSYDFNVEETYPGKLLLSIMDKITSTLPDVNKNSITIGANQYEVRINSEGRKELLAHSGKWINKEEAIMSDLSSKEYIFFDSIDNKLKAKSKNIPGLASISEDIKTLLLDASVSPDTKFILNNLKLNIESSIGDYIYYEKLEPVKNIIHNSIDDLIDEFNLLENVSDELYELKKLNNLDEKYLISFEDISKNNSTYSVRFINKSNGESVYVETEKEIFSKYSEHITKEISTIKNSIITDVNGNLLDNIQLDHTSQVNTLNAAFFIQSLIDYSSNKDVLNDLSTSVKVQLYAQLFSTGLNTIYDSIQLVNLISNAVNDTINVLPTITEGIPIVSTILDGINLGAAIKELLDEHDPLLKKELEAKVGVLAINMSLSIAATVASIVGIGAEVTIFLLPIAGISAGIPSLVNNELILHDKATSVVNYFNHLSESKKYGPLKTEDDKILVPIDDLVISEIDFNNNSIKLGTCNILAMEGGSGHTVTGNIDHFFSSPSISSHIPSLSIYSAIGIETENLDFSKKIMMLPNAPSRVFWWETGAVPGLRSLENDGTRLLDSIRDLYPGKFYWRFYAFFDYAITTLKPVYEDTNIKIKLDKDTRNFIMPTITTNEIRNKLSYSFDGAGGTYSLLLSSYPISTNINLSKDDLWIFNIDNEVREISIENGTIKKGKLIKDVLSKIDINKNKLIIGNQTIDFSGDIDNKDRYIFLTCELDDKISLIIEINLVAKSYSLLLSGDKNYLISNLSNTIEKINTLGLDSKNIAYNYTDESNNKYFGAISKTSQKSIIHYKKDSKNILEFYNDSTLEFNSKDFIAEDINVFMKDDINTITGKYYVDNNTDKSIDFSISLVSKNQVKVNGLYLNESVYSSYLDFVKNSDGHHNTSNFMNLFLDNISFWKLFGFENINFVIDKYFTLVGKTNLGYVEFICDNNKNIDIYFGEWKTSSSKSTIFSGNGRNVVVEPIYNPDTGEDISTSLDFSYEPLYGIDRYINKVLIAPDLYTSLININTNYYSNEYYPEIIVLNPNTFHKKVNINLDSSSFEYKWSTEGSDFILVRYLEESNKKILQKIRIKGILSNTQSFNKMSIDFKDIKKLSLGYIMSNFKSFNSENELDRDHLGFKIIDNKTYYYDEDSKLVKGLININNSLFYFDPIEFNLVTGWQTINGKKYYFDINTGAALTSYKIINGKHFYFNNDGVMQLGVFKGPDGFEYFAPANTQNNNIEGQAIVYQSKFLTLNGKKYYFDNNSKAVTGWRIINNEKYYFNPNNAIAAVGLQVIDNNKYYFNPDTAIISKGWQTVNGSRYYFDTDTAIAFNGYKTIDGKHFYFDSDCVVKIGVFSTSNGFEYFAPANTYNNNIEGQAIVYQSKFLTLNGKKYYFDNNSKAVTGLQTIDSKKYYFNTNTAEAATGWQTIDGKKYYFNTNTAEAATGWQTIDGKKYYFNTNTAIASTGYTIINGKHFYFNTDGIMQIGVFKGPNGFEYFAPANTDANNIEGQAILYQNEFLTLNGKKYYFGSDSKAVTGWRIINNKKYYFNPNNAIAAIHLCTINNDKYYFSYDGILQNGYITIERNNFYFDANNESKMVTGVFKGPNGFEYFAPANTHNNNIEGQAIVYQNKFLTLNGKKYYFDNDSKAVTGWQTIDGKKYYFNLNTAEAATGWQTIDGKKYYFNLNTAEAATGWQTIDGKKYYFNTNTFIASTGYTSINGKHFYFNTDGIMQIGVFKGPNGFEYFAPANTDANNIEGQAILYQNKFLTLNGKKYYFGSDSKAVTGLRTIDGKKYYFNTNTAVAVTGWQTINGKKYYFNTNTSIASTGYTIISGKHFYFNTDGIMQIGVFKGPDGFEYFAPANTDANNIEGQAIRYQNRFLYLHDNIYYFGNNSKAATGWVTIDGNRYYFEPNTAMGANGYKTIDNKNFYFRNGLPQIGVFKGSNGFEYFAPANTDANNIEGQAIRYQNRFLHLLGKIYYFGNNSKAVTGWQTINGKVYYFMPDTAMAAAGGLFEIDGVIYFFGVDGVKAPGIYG

[3] = target: T2, C. difficile toxin B (Clostridioides difficile, UniProt P18177); settings: 0-300 mM
T2 sequence (P18177 whole entry): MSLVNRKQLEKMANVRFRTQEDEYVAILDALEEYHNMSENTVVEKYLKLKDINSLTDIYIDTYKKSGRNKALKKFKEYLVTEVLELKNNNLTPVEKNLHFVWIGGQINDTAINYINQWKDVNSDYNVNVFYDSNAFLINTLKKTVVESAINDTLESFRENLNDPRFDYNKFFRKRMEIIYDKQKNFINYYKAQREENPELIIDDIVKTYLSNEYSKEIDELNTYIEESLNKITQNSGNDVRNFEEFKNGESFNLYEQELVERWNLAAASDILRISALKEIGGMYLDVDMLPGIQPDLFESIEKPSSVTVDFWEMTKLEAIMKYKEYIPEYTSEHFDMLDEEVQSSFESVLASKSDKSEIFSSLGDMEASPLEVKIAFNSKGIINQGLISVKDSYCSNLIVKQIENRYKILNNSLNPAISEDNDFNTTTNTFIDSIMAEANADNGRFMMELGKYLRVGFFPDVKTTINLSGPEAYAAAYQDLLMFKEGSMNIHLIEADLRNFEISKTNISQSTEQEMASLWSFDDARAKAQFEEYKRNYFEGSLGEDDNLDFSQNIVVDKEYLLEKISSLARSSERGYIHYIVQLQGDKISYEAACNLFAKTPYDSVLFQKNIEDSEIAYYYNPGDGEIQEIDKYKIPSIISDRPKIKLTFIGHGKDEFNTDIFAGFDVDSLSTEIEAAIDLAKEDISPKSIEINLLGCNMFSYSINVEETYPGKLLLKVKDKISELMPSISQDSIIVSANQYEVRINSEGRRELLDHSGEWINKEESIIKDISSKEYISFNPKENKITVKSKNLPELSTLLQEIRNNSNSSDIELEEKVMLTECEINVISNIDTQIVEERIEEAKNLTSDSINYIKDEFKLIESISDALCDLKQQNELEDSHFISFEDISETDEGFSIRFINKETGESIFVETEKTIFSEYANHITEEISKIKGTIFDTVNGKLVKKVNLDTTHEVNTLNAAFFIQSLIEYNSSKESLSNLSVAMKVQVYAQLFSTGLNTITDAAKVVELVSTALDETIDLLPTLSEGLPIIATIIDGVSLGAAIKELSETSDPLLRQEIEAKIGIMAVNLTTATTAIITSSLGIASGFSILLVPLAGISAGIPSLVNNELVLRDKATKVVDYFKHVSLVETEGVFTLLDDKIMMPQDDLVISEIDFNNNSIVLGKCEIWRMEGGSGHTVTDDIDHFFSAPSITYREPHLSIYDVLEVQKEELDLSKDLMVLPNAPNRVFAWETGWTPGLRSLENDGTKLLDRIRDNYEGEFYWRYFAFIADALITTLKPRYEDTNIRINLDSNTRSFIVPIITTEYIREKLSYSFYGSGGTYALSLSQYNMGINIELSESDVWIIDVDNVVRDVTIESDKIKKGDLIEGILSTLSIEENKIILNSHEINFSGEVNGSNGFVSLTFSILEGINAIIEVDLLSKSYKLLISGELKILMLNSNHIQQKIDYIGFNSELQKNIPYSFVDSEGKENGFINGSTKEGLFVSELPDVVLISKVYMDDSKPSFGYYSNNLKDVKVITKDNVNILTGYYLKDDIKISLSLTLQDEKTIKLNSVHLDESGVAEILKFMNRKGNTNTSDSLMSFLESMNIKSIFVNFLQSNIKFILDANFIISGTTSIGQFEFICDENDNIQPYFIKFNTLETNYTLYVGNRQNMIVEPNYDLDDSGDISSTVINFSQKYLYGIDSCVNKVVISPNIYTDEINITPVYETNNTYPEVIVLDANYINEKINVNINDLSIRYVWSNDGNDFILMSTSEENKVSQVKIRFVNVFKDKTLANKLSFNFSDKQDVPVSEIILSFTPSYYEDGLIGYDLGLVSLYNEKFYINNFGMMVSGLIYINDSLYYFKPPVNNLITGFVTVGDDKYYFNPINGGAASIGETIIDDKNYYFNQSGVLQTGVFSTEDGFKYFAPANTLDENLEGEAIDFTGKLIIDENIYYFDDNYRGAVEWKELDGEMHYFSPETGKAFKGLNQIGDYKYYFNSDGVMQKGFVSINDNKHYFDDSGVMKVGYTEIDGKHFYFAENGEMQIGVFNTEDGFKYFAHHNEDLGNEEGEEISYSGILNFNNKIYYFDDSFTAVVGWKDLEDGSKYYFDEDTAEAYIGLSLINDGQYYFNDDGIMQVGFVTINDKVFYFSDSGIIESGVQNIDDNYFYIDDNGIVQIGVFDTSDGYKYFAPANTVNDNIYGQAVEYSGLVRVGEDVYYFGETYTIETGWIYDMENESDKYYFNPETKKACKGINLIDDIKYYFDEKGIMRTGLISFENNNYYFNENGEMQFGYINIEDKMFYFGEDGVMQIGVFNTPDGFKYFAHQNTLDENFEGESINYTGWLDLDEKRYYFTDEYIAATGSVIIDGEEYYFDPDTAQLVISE

[4] = target: T2, C. difficile toxin B; test: biochemical; settings: read-out: reduction of toxin B activity (percent inhibition)
[5] = test system: mammalian β-glucosidases; settings: cited from earlier work
[6] = test system: C. difficile toxins A and B; settings: 0.1% or approximately 1.9 mM
[7] = test system: C. difficile spores; settings: 0.1% or approximately 1.9 mM
[8] = target: T1, C. difficile toxin A; settings: 0-300 mM

Compound: O=[N+]([O-])c1ccc(O[C@@H]2O[C@H](CO)[C@@H](O)[C@H](O)[C@H]2O)cc1 [PNPG, p-nitrophenyl-β-D-glucopyranoside]
- cleavage by the toxins compared with other substrates evaluated [1]: most efficient and sensitive, and had the lowest background

Compound: C[C@H](CCC(=O)NCCS(=O)(=O)O)[C@H]1CC[C@H]2[C@@H]3[C@H](O)C[C@@H]4C[C@H](O)CC[C@]4(C)[C@H]3C[C@H](O)[C@]12C [sodium taurocholate]
- inhibition at 300000 µM [2]: 71%
- inhibition of toxin B PNPG cleavage activity, dose response [3]: dose-dependent
- inhibition at 300000 µM [4]: 86%
- inhibition of β-glucosidases, mode ([5]; listed as Sodium taurocholate): non-competitively inhibit
- inhibition of β-glucosidases, mode ([5]; listed as taurocholate): non-competitive
- inhibition of cleavage activity of the toxins at low concentration [6]: does not inhibit
- effect on C. difficile spores in plate assay medium [7]: serves as a germinant
- inhibition of toxin A PNPG cleavage activity, dose response [8]: dose-dependent

Compound: phosphatidylserine
- inhibition of β-glucosidases, mode [5]: non-competitive
